Measured values as given in PMC5702947, “A Study on Cytotoxic and Apoptotic Potential of a Triterpenoid Saponin (3-O-α-L-Arabinosyl Oleanolic Acid) Isolated from Schumacheria castaneifolia Vahl in Human Non-Small-Cell Lung Cancer (NCI-H292) Cells” (BioMed Research International, 2017).

What was measured:
[1] = system: MRC-5 cells; test: Sulforhodamine B (SRB) cytotoxicity assay in MRC-5 cells; assay type: cell-based; details: Homo sapiens
Procedure: (§1) Sulphorhodamine B (SRB) assay was used to dertmine cytotoxic effects of the compound (3-O-L-AO) in NCI-H292 and MRC-5 cells. Cells (5 × 10^3/well) were seeded in 96-well tissue culture plates and incubated for 24 h. After 24 h incubation, cells were treated with 3-O-L-AO (0.78–25 μg/mL) and incubated for 24, 48, and 72 h. Paclitaxel (0.47–15 μg/mL) was used as the positive control. Cells were washed with PBS for three times and then fixed by adding 50% trichloroacetic acid (TCA) to each well followed by washing five times with tap water. After fixing, cells were stained with 0.4% SRB dye for 20 min followed by washing five times with 1% acetic acid. Tris-base (10 mM) was then added to each well and plates were kept on a plate shaker for 1 h at room temperature. The absorbance was measured using a microplate reader (Synergy HT, USA) at wavelength of 540 nm.

[2] = system: NCI-H292 cells; test: Sulforhodamine B (SRB) cytotoxicity assay in NCI-H292 cells; assay type: cell-based; details: Homo sapiens
Procedure: as §1

[3] = system: glutathione-S-transferase (GST); test: Glutathione-S-transferase (GST) activity in NCI-H292 cell lysates; assay type: cell-based, human; details: NCI-H292 cells, 0.5, 1 and 2 μg/mL (all three doses), 24 h, p < 0.05 to p < 0.0001
Procedure: (§2) Evaluation of oxidative stress markers (reactive oxygen species (ROS), glutathione-S-transferase (GST), and glutathione (GSH)) after exposure to 3-O-L-AO in NCI-H292 cells was determined as previously described by us.
An aliquot of cell lysates prepared for GSH assays was used to analyse GST activity. Glutathione and CDNB (1-chloro-2,4-dinitrobenzene) were served as substrates in this assay. A mixture was prepared by mixing 490 μL of PBS (pH 6.5), 5 μL of CDNB (100 mM), and 5 μL of GSH (100 mM); 180 μL of this mixture was mixed with 20 μL of cell lysate and incubated for 5 min at 37°C. Absorbance was recoreded at 340 nm for 5 min (1-minute time intervals). Quantity of GST catalyzing the oxidation of 1 millimole of 1-chloro-2,4-dinitrobenzene per minute at 37°C was considerd as one unit of GST activity.

[4] = system: survivin gene; test: Quantitative real-time PCR, survivin gene expression in NCI-H292 cells; assay type: cell-based, human; details: 1 and 2 μg/mL (both doses), 24 h, downregulation not significant
Procedure: (§3) NCI-H292 cells (2 × 10^5 cells/mL) grown in T-25 tissue culture flasks were treated with 3-O-L-AO (1 and 2 μg/mL) and incubated for another 24 h. TRIzol reagent was used to extract RNA as described by Ediriweera et al., 2016 [13]. Extracted RNA (2 μg) was incubated with 50 ng of random primers and 13.5 μL of PCR water for 5 min at 70°C. cDNA synthesis was then carried out after mixing with a maxter mix containing 5 μL MMLV (Moloney Murine Leukemia Virus Reverse Transcriptase) reaction buffer, 5 μL 10 mM dNTP mix, 25 units of RNasin, and 200 units of MMLV RT enzyme, following incubation at 37°C for 60 min, in a total volume of 25 μL. Stratagene Mx3000P real-time PCR system (Agilent Technologies, CA, USA) was used to carry out real-time PCR. Primers used have been previously described. For real-time PCR, 2 μL of cDNA was mixed with Master Mix containing 0.5 μL of forward and reverses primers, 12.5 μL SYBR Green Master Mix (Eurogentec, Seraing, Liège, Belgium), and 9.5 μL PCR water. The thermal cycle programme set for real-time PCR include stage 1, 95°C for 10 min and stage two consisting of three steps: denaturation at 95°C for 30 s, annealing at 56°C for 1 min, and extension at 72°C for 30 s and stage 2 was repeated for 40 cycles. […] Gene expression was quantified using the method described by Livak and Schmittgen, 2001 [14].

[5] = system: glutathione (GSH); test: Glutathione (GSH) levels in NCI-H292 cells; assay type: cell-based, human; details: NCI-H292 cells, 0.5, 1 and 2 μg/mL (all three doses), 24 h, p < 0.0001
Procedure: as §2
NCI-H292 cells were (1 × 10^5 cells/well) exposed to 3-O-L-AO (0.5, 1, and 2 μg/mL) for 24 h. After incubation, cells were collected by trypsinization. Collected cell pellets were mixed with ice-cold KCl (2 mL) and 0.5 M EDTA (1 mL) and sonicated for […]. Cell lysate was then centrifuged at 10,000 g for 15 min to obtain a clear supernatant and it was kept on ice throughout the experiments. Supernatent (75 μL) was mixed with 75 μL of 5% sulfosalicylic acid, 20 μL of 4% DTNB [5,5-dithiobis-(2-nitrobenzoic acid)], and 30 μL of 0.1 M potassium phosphate buffer (pH 8.0) and incubated for 30 min. Absorbance was then recorded at 412 nm and glutathione levels were calculated as nM/mg of cell lysate protein with the help of a GSH standard curve.

[6] = system: caspase 3/7; test: Caspase-Glo 3/7 activity assay in NCI-H292 cells; assay type: cell-based, human; details: NCI-H292 cells, 0.5, 1 and 2 μg/mL (all three doses), 24 h
Procedure: Caspase 3/7 activity in NCI-H292 cells was measured using the Caspase-Glo 3/7 assay kit according to manufacturer's protocol. Prior to the assay, NCI-H292 cells were treated with three doses of 3-O-L-AO (0.5, 1, and 2 μg/mL) and incubated for 24 h.

[7] = system: Escherichia coli; parameters: method as in earlier work; details: cited from earlier work
[8] = system: Staphylococcus aureus; parameters: method as in earlier work; details: cited from earlier work
[9] = system: Bax gene; test: Quantitative real-time PCR, Bax gene expression in NCI-H292 cells; assay type: cell-based, human; details: 1 and 2 μg/mL (both doses), 24 h
Procedure: as §3

[10] = system: NCI-H292 cells; test: Cytomorphological changes under phase-contrast microscope, NCI-H292 cells; assay type: cell-based, human; details: NCI-H292 cells, 1.5, 6.25 and 12.5 μg/mL, 24, 48, 72 h, phase-contrast images
Excerpt: (§4) Morphological changes of lung cancer cells (NCI-H292) and normal fibroblasts (MRC-5) cells after exposure to 3-O-L-AO were captured using inverted phase-contrast microscope (Olympus CKX41, Japan).

[11] = system: reactive oxygen species (ROS); test: Reactive oxygen species (ROS) level, NBT assay in NCI-H292 cells; assay type: cell-based, human; details: NCI-H292 cells, 0.5, 1 and 2 μg/mL (all three doses), 24 h, dose dependant
Procedure: as §2
NCI-H292 cells (20,000 cells/well) were plated in 96-well cell plates and incubated for 24 h. Following incubation, cells were treated with 3-O-L-AO (0.5, 1, and 2 μg/mL) and incubated for 24 h. Nitro Blue Tetrazolium (NBT) solution (1 mg/mL, 20 μL) was then added to each well and incubated for 1 h at 37°C. Blue formazan formed was then solubalized after adding 100 μL of dimethyl sulfoxide (DMSO) and the absorbance was read at 620 nm.

[12] = system: p53 gene; test: Quantitative real-time PCR, p53 gene expression in NCI-H292 cells; assay type: cell-based, human; details: 24 h
Procedure: as §3

[13] = system: NCI-H292 cells; test: AO/EB staining, apoptosis related morphology under fluorescence microscopy; assay type: cell-based, human; details: NCI-H292 cells, 2.5, 5 and 10 μg/mL, 24 h
Procedure: NCI-H292 lung cancer cells (2 × 10^4 cells/well) cultured on coverslips were treated with 3-O-L-AO (2.5, 5, and 10 μg/mL) for 24 h. After incubation, cells were washed with phosphate buffer saline (PBS) and fixed with 4% formaldehyde for 15 min. Fixed cells were again washed with PBS and stained with acridine orange/ethidium bromide as previously described by us. Stained cells were observed under a fluorescence microscope (Olympus, BX51TRF, Japan).

[14] = system: MRC-5 cells; test: Cytomorphological changes under phase-contrast microscope, MRC-5 cells; assay type: cell-based, human; details: MRC-5 cells, 1.5, 6.25 and 12.5 μg/mL, 24, 48, 72 h, phase-contrast images
Excerpt: as §4

| Compound | IC50 ([1]; MRC5, 24 h incubation) | IC50 ([1]; MRC5, 48 h incubation) | IC50 ([1]; MRC5, 72 h incubation) | IC50 ([2]; 24 h incubation) | IC50 ([2]; 48 h incubation) | IC50 ([2]; 72 h incubation) | GST levels (activity) [3] | survivin gene expression [4] | GSH levels [5] | Caspase 3/7 activity compared to untreated control [6] | Antibacterial effects against Escherichia coli [7] | Antibacterial effects against Staphylococcus aureus [8] | Bax gene expression [9] | Cytomorphological changes of lung cancer cells [10] | Reactive oxygen species (ROS) level [11] | p53 gene expression ([12]; 1 μg/mL) | p53 gene expression ([12]; 2 μg/mL) | Apoptotic induction (AO/EB staining) [13] | Cytomorphological changes of normal lung fibroblast cells [14] |
| --- | --- | --- | --- | --- | --- | --- | --- | --- | --- | --- | --- | --- | --- | --- | --- | --- | --- | --- | --- |
| CC(=O)O[C@H]1C(=O)[C@@]2(C)[C@H]([C@H](OC(=O)c3ccccc3)[C@]3(O)C[C@H](OC(=O)[C@H](O)[C@@H](NC(=O)c4ccccc4)c4ccccc4)C(C)=C1C3(C)C)[C@]1(OC(C)=O)CO[C@@H]1C[C@@H]2O [Paclitaxel, reference compound] | 1.51 µg/mL | 0.96 µg/mL | 0.35 µg/mL | 8.37 µg/mL | 3.28 µg/mL | 1.59 µg/mL |  |  |  |  |  |  |  |  |  |  |  |  |  |
| CC1(C)CCC2(C(=O)O)CCC3(C)C(=CCC4C5(C)CCC(OC6OCC(O)C(O)C6O)C(C)(C)C5CCC43C)C2C1 [3-O-L-AO, 3-O-α-L-arabinosyl oleanolic acid] | 5.4 µg/mL | 4.59 µg/mL | 2.83 µg/mL | 4.33 µg/mL | 2.69 µg/mL | 1.5 µg/mL | increase | downregulation | Significant reduction | Significant (p < 0.0001) increase | Moderate antibacterial effects | Moderate antibacterial effects | Significant (p < 0.001 and p < 0.0001) upregulation | decreased cell volume and rounding up cells | significantly (p < 0.05 to p < 0.0001) increased | upregulation | significant (p < 0.05) upregulation | dose dependent apoptotic induction | decreased cell volume and rounding up cells |
